Assay results: ChEMBL document CHEMBL1147864, “Synthesis of new sugar derivatives from Stachys sieboldi Miq and antibacterial evaluation against Mycobacterium tuberculosis, Mycobacterium avium, and Staphylococcus aureus” (2007)

Key:
Type in all cases: functional
Conditions in all cases: 336 h
[1] = tested on: Mycobacterium tuberculosis; test: Antimycobacterial activity against isoniazide-rifampicin-streptomycin-ethambutol-resistant Mycobacterium tuberculosis A-2-6 after 2 weeks by broth dilution method
[2] = tested on: Mycobacterium tuberculosis; test: Antimycobacterial activity against isoniazide-rifampicin-streptomycin-ethambutol-resistant Mycobacterium tuberculosis Q-4-1 after 2 weeks by broth dilution method
[3] = tested on: Mycobacterium tuberculosis; test: Antimycobacterial activity against streptomycin resistant Mycobacterium tuberculosis A-3-47 after 2 weeks by broth dilution method
[4] = tested on: Mycobacterium tuberculosis; test: Antimycobacterial activity against isoniazide-rifampicin-streptomycin-ethambutol-resistant Mycobacterium tuberculosis M-1-32 after 2 weeks by broth dilution method
[5] = tested on: Mycobacterium tuberculosis; test: Antimycobacterial activity against isoniazide resistant Mycobacterium tuberculosis K-3-6 after 2 weeks by broth dilution method
[6] = tested on: Mycobacterium tuberculosis; test: Antimycobacterial activity against isoniazide-rifampicin-streptomycin-ethambutol-resistant Mycobacterium tuberculosis U-2-15 after 2 weeks by broth dilution method
[7] = tested on: Mycobacterium tuberculosis; test: Antimycobacterial activity against isoniazide-rifampicin-streptomycin-ethambutol-resistant Mycobacterium tuberculosis U-4-6 after 2 weeks by broth dilution method
[8] = tested on: Mycobacterium tuberculosis; test: Antimycobacterial activity against isoniazide-rifampicin-streptomycin-ethambutol-resistant Mycobacterium tuberculosis P-1-50 after 2 weeks by broth dilution method
[9] = tested on: Mycobacterium tuberculosis; test: Antimycobacterial activity against isoniazide-rifampicin-streptomycin-ethambutol-resistant Mycobacterium tuberculosis Z-1-4 after 2 weeks by broth dilution method
[10] = tested on: Mycobacterium tuberculosis; test: Antimycobacterial activity against isoniazide-rifampicin-ethambutol-resistant Mycobacterium tuberculosis A-4-30 after 2 weeks by broth dilution method
[11] = tested on: Mycobacterium tuberculosis; test: Antimycobacterial activity against isoniazide-rifampicin-ethambutol-resistant Mycobacterium tuberculosis J-1-19 after 2 weeks by broth dilution method
[12] = tested on: Mycobacterium tuberculosis; test: Antimycobacterial activity against streptomycin resistant Mycobacterium tuberculosis A-4-8 after 2 weeks by broth dilution method
[13] = tested on: Mycobacterium tuberculosis; test: Antimycobacterial activity against isoniazide-rifampicin-streptomycin-ethambutol-resistant Mycobacterium tuberculosis V-1-16 after 2 weeks by broth dilution method
[14] = tested on: Mycobacterium tuberculosis; test: Antimycobacterial activity against isoniazide-rifampicin-streptomycin-ethambutol-resistant Mycobacterium tuberculosis C-1-29 after 2 weeks by broth dilution method
[15] = tested on: Mycobacterium tuberculosis; test: Antimycobacterial activity against isoniazide-rifampicin-streptomycin-ethambutol-resistant Mycobacterium tuberculosis E-1-40 after 2 weeks by broth dilution method
[16] = tested on: Mycobacterium tuberculosis; test: Antimycobacterial activity against isoniazide-rifampicin-ethambutol-resistant Mycobacterium tuberculosis N-4-11 after 2 weeks by broth dilution method
[17] = tested on: Mycobacterium tuberculosis; test: Antimycobacterial activity against isoniazide-rifampicin-streptomycin-ethambutol-resistant Mycobacterium tuberculosis Z-1-2 after 2 weeks by broth dilution method
[18] = tested on: Mycobacterium tuberculosis; test: Antimycobacterial activity against isoniazide-rifampicin-streptomycin-ethambutol-resistant Mycobacterium tuberculosis P-4-11after 2 weeks by broth dilution method
[19] = tested on: Mycobacterium tuberculosis; test: Antimycobacterial activity against isoniazide-rifampicin resistant Mycobacterium tuberculosis A-2-3 after 2 weeks by broth dilution method
[20] = tested on: Mycobacterium tuberculosis; test: Antimycobacterial activity against isoniazide-rifampicin-streptomycin-ethambutol-resistant Mycobacterium tuberculosis S-1-14 after 2 weeks by broth dilution method
[21] = tested on: Mycobacterium tuberculosis; test: Antimycobacterial activity against isoniazide resistant Mycobacterium tuberculosis A-2-1 after 2 weeks by broth dilution method
[22] = tested on: Mycobacterium tuberculosis; test: Antimycobacterial activity against isoniazide-rifampicin-streptomycin-ethambutol-resistant Mycobacterium tuberculosis R-1-38 after 2 weeks by broth dilution method
[23] = tested on: Mycobacterium tuberculosis; test: Antimycobacterial activity against isoniazide-rifampicin-streptomycin-ethambutol-resistant Mycobacterium tuberculosis N-5-2 after 2 weeks by broth dilution method
[24] = tested on: Mycobacterium tuberculosis; test: Antimycobacterial activity against rifampicin resistant Mycobacterium tuberculosis A-2-4 after 2 weeks by broth dilution method
[25] = tested on: Mycobacterium tuberculosis; test: Antimycobacterial activity against isoniazide-streptomycin resistant Mycobacterium tuberculosis A-4-25 after 2 weeks by broth dilution method

Measured: MIC

C=CCO[C@@H]1O[C@H](CO[C@H]2O[C@H](CO[C@H]3O[C@H](COC(C)=O)[C@H](OC(C)=O)[C@H](OC(C)=O)[C@H]3OC(C)=O)[C@H](OC(C)=O)[C@H](OC(C)=O)[C@H]2OC(C)=O)[C@@H](OC(C)=O)[C@H](OC(C)=O)[C@H]1OC(C)=O
12.5 µg/mL: [14] | [24] | [25]
1.56 µg/mL: [7]
6.25 µg/mL: [1] | [2] | [6] | [9] | [10] | [12] | [13] | [15] | [20] | [22]
3.13 µg/mL: [3] | [4] | [5] | [8] | [11] | [16] | [17] | [18] | [19] | [21] | [23]
